Where a name gives a salt, the structure may show the parent alone. Read-outs that look alike come from different tables or passages of the source. Marks after values point to notes of the source that are not given here.
What was measured:
[1] = molecular target: T1, Human 5-HT1A Receptor (Homo sapiens, UniProt P08908); test: cAMP RIA in human 5-HT1A receptor cell line; assay type: cell-based; details: CHO cells; for EC50: superscript a, read-out: c-AMP, (EC50)^a; for EC50 / Emax / c-AMP, (Emax)^c: forskolin stimulated cAMP; for Emax / c-AMP, (Emax)^c: superscript c; for Emax: read-out: c-AMP, (Emax)^c; for IC50: superscript b, reversal of agonist activity, read-out: c-AMP, (IC50)^b
T1 construct: expressed in transfected cells; host or cells: CHO cells
T1 sequence (P08908 1-422): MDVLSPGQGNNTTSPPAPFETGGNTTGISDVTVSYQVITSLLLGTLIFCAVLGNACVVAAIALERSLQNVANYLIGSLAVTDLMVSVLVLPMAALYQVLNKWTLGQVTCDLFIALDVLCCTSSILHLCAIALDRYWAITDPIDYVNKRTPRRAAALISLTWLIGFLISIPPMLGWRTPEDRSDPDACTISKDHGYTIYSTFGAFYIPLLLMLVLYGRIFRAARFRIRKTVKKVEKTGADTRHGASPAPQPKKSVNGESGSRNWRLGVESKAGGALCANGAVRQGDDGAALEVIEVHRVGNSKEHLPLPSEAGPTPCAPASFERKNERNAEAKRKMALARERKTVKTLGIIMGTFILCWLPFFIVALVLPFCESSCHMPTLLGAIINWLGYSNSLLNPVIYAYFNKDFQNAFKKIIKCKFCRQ
Summary of the method: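 Stably transfected CHO cells preincubated in Krebs with 500 uM IBMX, then given forskolin (1 uM final) and test compound (0.1 and 1 uM initial screen) for 10 min at 37° C; cAMP measured by RIA as % inhibition. Antagonist mode: 6 concentrations preincubated 20 min before agonist plus forskolin; IC50 for reversal.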

[2] = molecular target: T2, cloned human 5-HT1A receptors (Homo sapiens, UniProt P08908); test: 35S-GTPγS binding assay; assay type: biochemical; details: for EC50: superscript a, potency of stimulatory effect; for IC50: superscript b, reversal of 8-OH-DPAT effect; for Emax: superscript c, maximum stimulatory effect; for Imax (maximum inhibitory effect) / GTPγS, (Imax)^d: superscript d, maximum inhibitory effect
T2 construct: expressed in transfected cells
T2 sequence (P08908 1-422): T1 sequence (P08908 1-422)
Description: The ^35S-GTPγS binding assay similar to that used by Lazareno and Birdsall (Br. J. Pharmacol., 1993, 109: 1120) was used to determine the test compound's ability to affect the binding of ^35S-GTPγS to membranes containing cloned human 5-HT1A receptors. Agonists produce an increase in binding whereas antagonists produce no increase but rather reverse the effects of the standard agonist 8-OH-DPAT. The test compound's maximum stimulatory effect is represented as the Emax, while its potency is defined by the EC50. The test compound's maximum inhibitory effect is represented as the Imax, while its potency is defined by the IC50. […] was used to determine maximum agonist or antagonist response.

[3] = molecular target: T1, Human 5-HT1A Receptor; test: 8-OH-DPAT binding, human 5-HT1A receptor cell line; details: stably transfected CHO cells, 8-OH-DPAT ligand 1.5 nM; read-out: h5-HT1A Affinity, Ki
Summary of the method: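 Membranes from CHO cells stably expressing human 5-HT1A, incubated 30 min at room temperature in 50 mM Tris pH 7.5 with 1.5 nM radioligand (8-OH-DPAT). Non-specific binding defined with […]; filtration on PEI-soaked GF/B filters. Single-point inhibition at […], then Ki for actives.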

[4] = molecular target: h-5-HT-T (Homo sapiens, UniProt P31645); test: h-5-HT-T IC50 (Table 1, no method described)
Sequence of h-5-HT-T (P31645 whole entry): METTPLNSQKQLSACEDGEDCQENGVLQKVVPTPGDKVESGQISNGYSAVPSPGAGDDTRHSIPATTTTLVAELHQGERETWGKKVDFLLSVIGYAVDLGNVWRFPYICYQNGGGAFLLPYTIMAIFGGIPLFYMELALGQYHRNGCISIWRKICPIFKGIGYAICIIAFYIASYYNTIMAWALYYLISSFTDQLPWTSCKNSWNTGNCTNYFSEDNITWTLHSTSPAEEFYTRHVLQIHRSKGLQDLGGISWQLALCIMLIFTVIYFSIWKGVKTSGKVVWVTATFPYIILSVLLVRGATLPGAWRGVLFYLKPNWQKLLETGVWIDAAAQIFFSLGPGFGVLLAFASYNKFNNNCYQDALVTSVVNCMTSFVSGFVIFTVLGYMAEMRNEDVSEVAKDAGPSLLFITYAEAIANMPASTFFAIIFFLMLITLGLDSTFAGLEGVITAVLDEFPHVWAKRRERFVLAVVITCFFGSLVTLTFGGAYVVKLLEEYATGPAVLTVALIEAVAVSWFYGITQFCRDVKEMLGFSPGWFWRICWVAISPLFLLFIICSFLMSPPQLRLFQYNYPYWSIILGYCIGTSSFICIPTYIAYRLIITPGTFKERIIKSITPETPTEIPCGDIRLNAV

[5] = molecular target: T3, serotonin transporter (Rattus norvegicus, UniProt P31652); test: 3H-paroxetine binding to the serotonin transporter, rat frontal cortical membranes; details: values printed without parentheses, 3H-paroxetine 0.1 nM, read-out: rb-5-HH-T, Ki
T3 construct: frontal cortical membranes prepared from male S.D. rats; from tissue; host or cells: rat frontal cortex membranes (male Sprague-Dawley)
T3 sequence (P31652 whole entry): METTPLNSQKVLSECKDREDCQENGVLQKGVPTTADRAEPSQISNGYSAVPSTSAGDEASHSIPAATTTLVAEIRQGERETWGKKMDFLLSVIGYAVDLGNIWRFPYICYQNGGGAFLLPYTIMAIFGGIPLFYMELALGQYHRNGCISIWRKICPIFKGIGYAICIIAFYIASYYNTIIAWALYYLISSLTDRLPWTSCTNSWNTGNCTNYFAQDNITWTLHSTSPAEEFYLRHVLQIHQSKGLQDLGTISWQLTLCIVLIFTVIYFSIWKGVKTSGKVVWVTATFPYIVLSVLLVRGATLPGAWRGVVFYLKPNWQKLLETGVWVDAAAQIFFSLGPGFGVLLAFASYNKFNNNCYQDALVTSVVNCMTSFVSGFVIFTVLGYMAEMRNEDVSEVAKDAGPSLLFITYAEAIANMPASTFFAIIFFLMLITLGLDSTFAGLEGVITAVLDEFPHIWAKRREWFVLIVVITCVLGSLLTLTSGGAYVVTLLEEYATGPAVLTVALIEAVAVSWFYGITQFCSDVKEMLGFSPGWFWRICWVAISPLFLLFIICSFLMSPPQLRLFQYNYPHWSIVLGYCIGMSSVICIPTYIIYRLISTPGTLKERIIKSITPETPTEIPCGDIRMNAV
Summary of the method: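 Male Sprague-Dawley rat frontal cortical membranes incubated with 0.1 nM ³H-paroxetine for 60 min at 25 °C, test compound at one to eight concentrations; 10 μM fluoxetine defined specific binding. Filtration separated bound ligand, counted by scintillation. IC50 from nonlinear regression, converted to Ki by Cheng–Prusoff.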

Emax ([1]; CHO) [%] | GTPγS, (Imax)^d [2] [%^d] | c-AMP, (Emax)^c [1] [%^c] | SMILES | EC50 [1] [nM] | Emax [1] [%] | EC50 [2] [nM] | IC50 [2] [nM] | Emax [2] [%] | Imax (maximum inhibitory effect) [2] [%] | Ki [3] [nM] | IC50 [4] [nM] | Ki [5] [nM] | melting point | IC50 [1] [nM]
 |  |  | Cc1ccc2c3c(ccc2n1)OC[C@H](CNCCC1CCc2[nH]c4ccc(F)cc4c2C1)O3 (mixture of isomers) [Example 40, [2-(6-Fluoro-2,3,4,9-tetrahydro-1H-carbazol-3-yl)ethyl]{[(2S)-8-methyl-2,3-dihydro[1,4]dioxino[2,3-f]quinolin-2-yl]methyl}amine dihydrochloride] | 4.06 | 100 | 7.1 | 75 | 46 | 34 | 680 | 1.24 ± 0.16 | 48.4 |  | 
 |  |  | Cc1ccc2c3c(ccc2n1)OC[C@H](CNC1CCc2c([nH]c4ccccc24)C1)O3.Cl.Cl (mixture of isomers) [Example 43, N-{[(2S)-8-methyl-2,3-dihydro[1,4]dioxino[2,3-f]quinolin-2-yl]methyl}-2,3,4,9-tetrahydro-1H-carbazol-2-amine dihydrochloride] | 233 | 61 |  | 197 |  | 98.5 | 432 | 19.3 ± 2.51 | 45.1 | 117 to 118 °C (dec.) | 
62 | 95 |  | Cc1ccc2c3c(ccc2n1)OC[C@H](CNCC1CCc2sc4ccc(F)cc4c2C1)O3 (single isomer, unassigned) [31 diastereomer 1] |  |  |  | 155 |  |  | 1.14 | 337 | 9.9 |  | 
 | 65 | 62 | Cc1ccc2c3c(ccc2n1)OC[C@H](CNCC1CCc2sc4ccc(F)cc4c2C1)O3 (single isomer, unassigned) [31 diastereomer 2] |  |  |  | 290 |  |  | 3.67 | 547 | 51.5 |  | 
 |  |  | Cc1ccc2c3c(ccc2n1)OC[C@H](CNCC1CCc2sc4ccccc4c2C1)O3 (single isomer, unassigned) [32 diastereomers 1] |  |  |  | 494 |  | 100 | 8.07 |  | > 1000 |  | 67.6
62 |  |  | Cc1ccc2c3c(ccc2n1)OC[C@H](CNCC1CCc2c(sc4cc(F)ccc24)C1)O3 (single isomer, unassigned) [39 diastereomer 1] |  |  |  | 645 |  | 100 | 7.09 | 2060 | 210 |  | 
 | 80 | 75 | Cc1ccc2c3c(ccc2n1)OC[C@H](CNCC1CCc2c(sc4cc(F)ccc24)C1)O3 (single isomer, unassigned) [39 diastereomer 2] |  |  |  | 117 |  |  | 2.16 | 1440 | 184 |  | 
 |  |  | Cc1ccc2c3c(ccc2n1)OC[C@H](CNCC[C@@H]1CCc2[nH]c4ccc(F)cc4c2C1)O3 (single isomer, unassigned) [Example 41, dihydrochloride] | 4.13 | 94 | 24.8 |  | 94 |  | 242 | 0.58 ± 0.14 | 9.45 |  | 
 |  |  | Cc1ccc2c3c(ccc2n1)OC[C@H](CNCC[C@H]1CCc2[nH]c4ccc(F)cc4c2C1)O3 (single isomer, unassigned) [Example 42, dihydrochloride] | 36.4 | 87 | 63 | 351 | 39 | 71 | 751 | 2.8 ± 0.12 | 58 |  | 
 |  |  | Cc1ccc2c3c(ccc2n1)OC[C@H](CN[C@H]1CCc2c([nH]c4ccccc24)C1)O3 (single isomer, unassigned) [Example 45, dihydrochloride] | 157 | 59 |  | 461 |  |  | 365 | 38.95 ± 0.18 | 34.3 |  | 
 |  |  | CCN(CC1CCc2[nH]c3ccc(F)cc3c2C1)C[C@H]1COc2ccc3nc(C)ccc3c2O1 (stereo partly drawn) [Example 50, N-[(6-Fluoro-2,3,4,9-tetrahydro-1H-carbazol-3-yl)methyl]-N-{[(2S)-8-methyl-2,3-dihydro[1,4]dioxino[2,3-f]quinolin-2-yl]methyl}ethanamine dihydrochloride dihydrate] |  |  |  | 179 |  | 100 | 226 | 5.73 ± 0.33 | 26.9 |  | 137
 |  |  | Cc1ccc2c3c(ccc2n1)OC[C@H](CN(CC1CC1)CC1CCc2[nH]c4ccc(F)cc4c2C1)O3 (stereo partly drawn) [Example 52, (Cyclopropylmethyl)[(6-fluoro-2,3,4,9-tetrahydro-1H-carbazol-3-yl)methyl]{[(2S)-8-methyl-2,3-dihydro[1,4]dioxino[2,3-f]quinolin-2-yl]methyl}amine dihydrochloride dihydrate] | 312 | 70 |  | 1580 |  | 100 | 936 | 19.5 ± 0.28 | 670 |  | 
 |  |  | CCCN(C[C@@H]1CCc2[nH]c3ccc(F)cc3c2C1)C[C@H]1COc2ccc3nc(C)ccc3c2O1 [Example 54, N-{[(3R)-6-Fluoro-2,3,4,9-tetrahydro-1H-carbazol-3-yl]methyl}-N-{[(2S)-8-methyl-2,3-dihydro[1,4]dioxino[2,3-f]quinolin-2-yl]methyl}propan-1-amine dihydrochloride dihydrate] | 177 | 48 |  | 581 |  | 63 | 617 | 16.6 ± 0.85 | 96.5 |  | 
 |  |  | Cc1ccc2c3c(ccc2n1)OC[C@H](CN(CC1CC1)C[C@@H]1CCc2[nH]c4ccc(F)cc4c2C1)O3 [Example 55, (Cyclopropylmethyl){[(3R)-6-fluoro-2,3,4,9-tetrahydro-1H-carbazol-3-yl]methyl}{[(2S)-8-methyl-2,3-dihydro[1,4]dioxino[2,3-f]quinolin-2-yl]methyl}amine dihydrochloride dihydrate] | 211 | 67 |  | 1130 |  | 74 | 850 | 8.5 ± 0.18 | 110 |  | 
 |  |  | Cc1ccc2c3c(ccc2n1)OC[C@H](CN(C[C@@H]1CCc2[nH]c4ccc(F)cc4c2C1)C1CCC1)O3 [Example 56, N-{[(3R)-6-Fluoro-2,3,4,9-tetrahydro-1H-carbazol-3-yl]methyl}-N-{[(2S)-8-methyl-2,3-dihydro[1,4]dioxino[2,3-f]quinolin-2-yl]methyl}cyclobutanamine dihydrochloride dihydrate] | 154 | 69 |  | 3100 |  |  | 1730 | 18.1 ± 0.39 | 127 |  | 
 |  |  | Cc1ccc2c3c(ccc2n1)OC[C@H](CN(C)C[C@@H]1CCc2c(c4cc(F)ccc4n2C)C1)O3 [Example 69, {[(3R)-6-Fluoro-9-methyl-2,3,4,9-tetrahydro-1H-carbazol-3-yl]methyl}methyl{[(2S)-8-methyl-2,3-dihydro[1,4]dioxino[2,3-f]quinolin-2-yl]methyl}amine monohydrochloride monohydrate] | 548 | 63 |  |  |  |  | 1590 | 35.8 ± 0.71 | 220 |  | 

Reference: patent US7297704B2, “Cycloalkyfused indole, benzothiophene, benzofuran and idene derivatives” (Wyeth, priority 2005, dated 2007)
